Assay results: ChEMBL document CHEMBL1201862, “PubChem BioAssay data set” (2004)
Calls of active or inactive are those of the source.

Columns and labels:
[1] = Counterscreen for activators of the function of SWI/SNF related, matrix associated, actin dependent regulator of chromatin, subfamily a, member 2 (SMARCA2, BRM): Luminescence-based cell-based high throughput dose response assay to identify non-selective compounds using the VP16 reporter assay.; format: functional
HeLa = experiment: HeLa cell cytotoxicity, dose response, cytotoxicity control, 24 h, cherry-picked samples (AID 504726); format: functional, cell-based; conditions: Homo sapiens;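 note: potency for cytotoxicity as loss of luminescence signal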
[2] = target: T1, Rac GTPase-activating protein 1 (Homo sapiens, UniProt Q9H0H5); experiment: MgcRacGAP GTPase-activating activity inhibitors, confirmation, biochemical, ADP Hunter fluorescence, primary and confirmatory (AID 624330); format: functional
T1 sequence (Q9H0H5 whole entry): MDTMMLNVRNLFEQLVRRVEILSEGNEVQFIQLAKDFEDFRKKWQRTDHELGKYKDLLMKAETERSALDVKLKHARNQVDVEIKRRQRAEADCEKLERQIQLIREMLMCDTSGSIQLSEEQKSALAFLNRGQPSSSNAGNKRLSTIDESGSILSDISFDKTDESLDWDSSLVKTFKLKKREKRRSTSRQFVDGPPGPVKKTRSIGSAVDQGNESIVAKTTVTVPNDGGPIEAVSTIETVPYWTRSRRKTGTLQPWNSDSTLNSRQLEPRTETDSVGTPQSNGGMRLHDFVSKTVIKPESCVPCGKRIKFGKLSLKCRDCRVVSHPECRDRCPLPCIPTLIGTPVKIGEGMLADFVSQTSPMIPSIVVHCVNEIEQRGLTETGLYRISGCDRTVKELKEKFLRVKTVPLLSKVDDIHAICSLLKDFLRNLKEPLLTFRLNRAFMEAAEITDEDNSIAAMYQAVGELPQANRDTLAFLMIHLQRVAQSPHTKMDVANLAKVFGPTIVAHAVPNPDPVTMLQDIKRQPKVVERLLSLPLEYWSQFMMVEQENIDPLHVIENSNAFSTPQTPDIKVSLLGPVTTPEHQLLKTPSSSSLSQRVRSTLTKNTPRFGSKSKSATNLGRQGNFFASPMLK

ORF 73 = ORF 73 (Human herpesvirus 8, UniProt O40947); experiment: inhibitors of C-LANA binding to LBS DNA, dose response, biochemical, fluorescence polarization, cherry-picked samples (AID 504725); parameters: species or system Human gammaherpesvirus 8;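 note: fluorescence polarization of a labeled DNA duplex reporting LANA DNA binding; potency is for inhibitors that block LANA binding to the DNA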
Sequence of ORF 73 (O40947 whole entry): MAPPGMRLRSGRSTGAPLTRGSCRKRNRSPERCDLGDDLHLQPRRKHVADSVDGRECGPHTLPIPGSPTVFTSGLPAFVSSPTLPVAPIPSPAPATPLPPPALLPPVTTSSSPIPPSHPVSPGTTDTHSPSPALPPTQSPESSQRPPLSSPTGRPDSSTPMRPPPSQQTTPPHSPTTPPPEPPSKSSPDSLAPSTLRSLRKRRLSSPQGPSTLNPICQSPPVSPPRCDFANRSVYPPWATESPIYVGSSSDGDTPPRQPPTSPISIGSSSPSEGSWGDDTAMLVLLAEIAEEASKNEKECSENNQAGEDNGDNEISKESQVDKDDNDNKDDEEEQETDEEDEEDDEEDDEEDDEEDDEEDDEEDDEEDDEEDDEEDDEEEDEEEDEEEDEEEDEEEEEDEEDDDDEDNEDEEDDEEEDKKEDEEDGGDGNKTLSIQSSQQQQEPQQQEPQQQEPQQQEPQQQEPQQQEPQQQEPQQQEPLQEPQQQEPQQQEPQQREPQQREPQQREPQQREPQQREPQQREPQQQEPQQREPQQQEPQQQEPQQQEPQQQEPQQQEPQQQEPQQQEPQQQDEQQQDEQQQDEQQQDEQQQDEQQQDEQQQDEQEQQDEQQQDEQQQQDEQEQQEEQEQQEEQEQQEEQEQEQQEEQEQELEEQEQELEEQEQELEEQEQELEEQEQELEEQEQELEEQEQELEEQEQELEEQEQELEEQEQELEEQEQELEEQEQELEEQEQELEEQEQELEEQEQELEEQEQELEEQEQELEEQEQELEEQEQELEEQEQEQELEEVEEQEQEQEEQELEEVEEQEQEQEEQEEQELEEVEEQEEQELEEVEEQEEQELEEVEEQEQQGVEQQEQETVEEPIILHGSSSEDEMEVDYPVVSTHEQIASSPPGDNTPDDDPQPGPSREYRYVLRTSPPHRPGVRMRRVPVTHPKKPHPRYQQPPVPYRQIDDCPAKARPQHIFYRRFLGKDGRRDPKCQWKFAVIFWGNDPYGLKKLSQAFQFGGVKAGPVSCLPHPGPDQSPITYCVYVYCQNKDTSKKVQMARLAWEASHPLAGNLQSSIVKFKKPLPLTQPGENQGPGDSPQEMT

[3] = target: SWI/SNF-related matrix-associated actin-dependent regulator of chromatin subfamily A member 2 (Homo sapiens, UniProt P51531); experiment: Luminescence-based cell-based high throughput dose response assay to identify activators of the function of SWI/SNF related, matrix associated, actin dependent regulator of chromatin, subfamily a, member 2 (SMARCA2, BRM).; format: functional
Sequence of SWI/SNF-related matrix-associated actin-dependent regulator of chromatin subfamily A member 2 (P51531 whole entry): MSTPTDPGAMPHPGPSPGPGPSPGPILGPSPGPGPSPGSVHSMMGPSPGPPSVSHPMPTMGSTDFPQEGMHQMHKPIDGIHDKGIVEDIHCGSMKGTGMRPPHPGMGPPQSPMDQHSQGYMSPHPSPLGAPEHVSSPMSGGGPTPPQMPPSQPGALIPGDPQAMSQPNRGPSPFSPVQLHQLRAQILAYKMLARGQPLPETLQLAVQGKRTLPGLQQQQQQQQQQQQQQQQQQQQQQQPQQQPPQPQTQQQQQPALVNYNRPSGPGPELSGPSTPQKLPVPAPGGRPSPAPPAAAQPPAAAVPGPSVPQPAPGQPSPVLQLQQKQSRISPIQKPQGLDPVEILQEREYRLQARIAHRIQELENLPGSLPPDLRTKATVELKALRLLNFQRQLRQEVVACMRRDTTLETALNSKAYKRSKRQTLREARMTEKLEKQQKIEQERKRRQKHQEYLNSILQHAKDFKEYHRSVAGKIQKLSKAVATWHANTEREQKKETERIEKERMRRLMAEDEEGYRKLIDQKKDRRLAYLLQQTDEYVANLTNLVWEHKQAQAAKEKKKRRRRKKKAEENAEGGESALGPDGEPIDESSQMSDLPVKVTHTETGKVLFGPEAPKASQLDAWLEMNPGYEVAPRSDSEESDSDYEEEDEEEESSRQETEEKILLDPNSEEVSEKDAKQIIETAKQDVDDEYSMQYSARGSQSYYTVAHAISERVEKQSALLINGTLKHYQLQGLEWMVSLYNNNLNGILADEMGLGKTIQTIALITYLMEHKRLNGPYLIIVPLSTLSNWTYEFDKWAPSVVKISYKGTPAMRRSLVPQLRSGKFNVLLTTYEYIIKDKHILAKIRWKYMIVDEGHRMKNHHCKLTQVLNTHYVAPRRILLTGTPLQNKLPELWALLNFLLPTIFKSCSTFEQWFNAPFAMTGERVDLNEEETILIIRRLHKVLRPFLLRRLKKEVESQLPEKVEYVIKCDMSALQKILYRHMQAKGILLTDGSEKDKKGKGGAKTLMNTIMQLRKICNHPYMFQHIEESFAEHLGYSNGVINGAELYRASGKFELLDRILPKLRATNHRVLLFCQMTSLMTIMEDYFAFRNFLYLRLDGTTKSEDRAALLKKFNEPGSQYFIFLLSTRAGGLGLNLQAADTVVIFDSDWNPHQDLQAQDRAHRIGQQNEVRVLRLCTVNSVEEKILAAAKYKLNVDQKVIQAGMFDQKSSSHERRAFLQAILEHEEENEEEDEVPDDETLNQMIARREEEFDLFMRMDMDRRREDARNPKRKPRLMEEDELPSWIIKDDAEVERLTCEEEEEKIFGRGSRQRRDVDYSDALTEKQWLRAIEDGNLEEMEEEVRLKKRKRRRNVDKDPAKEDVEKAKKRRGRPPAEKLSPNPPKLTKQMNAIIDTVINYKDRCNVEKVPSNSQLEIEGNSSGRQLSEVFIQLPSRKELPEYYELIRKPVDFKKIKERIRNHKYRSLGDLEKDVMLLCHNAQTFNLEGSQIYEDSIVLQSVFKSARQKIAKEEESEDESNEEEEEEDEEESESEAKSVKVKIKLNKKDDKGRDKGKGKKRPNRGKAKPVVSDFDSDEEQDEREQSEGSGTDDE

HEK293 [4] = experiment: cells; conditions: Homo sapiens
Keap1/Nrf2 = Keap1/Nrf2 (Homo sapiens, UniProt Q14145); experiment: Keap1-Nrf2 protein-protein interaction inhibitors, dose response, biochemical, fluorescence polarization, cherry-picked samples (AID 588683)
Sequence of Keap1/Nrf2 (Q16236 whole entry, the tested form may be a part): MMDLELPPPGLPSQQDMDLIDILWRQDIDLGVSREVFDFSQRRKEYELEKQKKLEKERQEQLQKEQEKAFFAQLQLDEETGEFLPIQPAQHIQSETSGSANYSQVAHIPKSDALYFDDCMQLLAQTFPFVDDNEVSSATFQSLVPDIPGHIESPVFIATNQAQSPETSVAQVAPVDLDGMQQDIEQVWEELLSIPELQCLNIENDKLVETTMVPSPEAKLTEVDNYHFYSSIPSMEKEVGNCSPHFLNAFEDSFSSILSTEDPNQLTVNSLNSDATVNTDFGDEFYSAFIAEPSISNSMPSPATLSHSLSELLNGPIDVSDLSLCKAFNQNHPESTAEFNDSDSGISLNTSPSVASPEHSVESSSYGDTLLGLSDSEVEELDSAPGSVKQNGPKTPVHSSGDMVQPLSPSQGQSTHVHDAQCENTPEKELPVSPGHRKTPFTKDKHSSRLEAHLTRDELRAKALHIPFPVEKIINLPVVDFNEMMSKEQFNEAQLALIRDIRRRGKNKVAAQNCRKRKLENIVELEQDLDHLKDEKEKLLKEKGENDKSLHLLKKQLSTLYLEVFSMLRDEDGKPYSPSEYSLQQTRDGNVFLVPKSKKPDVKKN
Sequence of Keap1/Nrf2 (Q14145 whole entry, the tested form may be a part): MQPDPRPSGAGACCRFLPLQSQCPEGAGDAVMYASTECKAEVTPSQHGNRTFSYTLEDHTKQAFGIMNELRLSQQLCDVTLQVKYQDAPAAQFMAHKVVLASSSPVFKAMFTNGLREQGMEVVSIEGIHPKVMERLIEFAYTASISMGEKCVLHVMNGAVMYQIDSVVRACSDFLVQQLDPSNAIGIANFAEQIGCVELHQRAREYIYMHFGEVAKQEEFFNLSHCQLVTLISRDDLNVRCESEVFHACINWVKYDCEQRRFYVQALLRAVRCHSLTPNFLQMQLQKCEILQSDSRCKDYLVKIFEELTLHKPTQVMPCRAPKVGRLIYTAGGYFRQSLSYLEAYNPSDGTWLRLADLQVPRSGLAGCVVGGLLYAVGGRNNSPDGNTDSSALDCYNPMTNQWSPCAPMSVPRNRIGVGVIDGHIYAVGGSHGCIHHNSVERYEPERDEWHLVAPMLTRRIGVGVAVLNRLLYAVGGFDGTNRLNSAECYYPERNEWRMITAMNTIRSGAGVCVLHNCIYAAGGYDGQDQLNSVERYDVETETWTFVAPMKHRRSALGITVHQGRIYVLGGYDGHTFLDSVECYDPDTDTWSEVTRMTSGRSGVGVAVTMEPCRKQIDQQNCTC

[5] = ARNT/TACC3 interaction disruptors, potency, confirmation, biochemical, AlphaScreen, cherry-picked samples (AID 651703); format: functional, Homo sapiens;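 note: His-tagged ARNT PAS-B domain paired with GST-TACC3 E629A dimer coactivator fragment; potency of inhibitors that break up the complex and lower AlphaScreen signal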
HEK293 [6] = experiment: cells; conditions: Homo sapiens; remark: listed apart in the source
[7] = HeLa cell cytotoxicity, dose response, cytotoxicity control for MgcRacGAP inhibitor project (AID 624300); format: functional
[8] = Luminescence Cell-Based Secondary HTS screen to identify cytotoxic compounds of NIH3T3 cells. [Related pubchem assays: 1885, 1968 ]; format: functional
[9] = Luminescence Cell-Based/Microorganism Confirmation at Dose of Inhibitors of Trypanosoma cruzi Infection. [Related pubchem assays: 1885, 1968 ]; format: functional
[10] = inhibitors of Trypanosoma cruzi host-cell infection, confirmation, beta-gal luminescence, NIH3T3 host cells (AID 2630); format: functional, cell-based; conditions: Mus musculus
Jurkat = experiment: antigen receptor-induced NF-kB inhibitors, dose response, Jurkat, luciferase reporter, luminescence, B- and T-cell (AID 489004); format: functional, cell-based; conditions: Homo sapiens;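 note: NF-kB luciferase reporter Jurkat cells stimulated with PMA plus ionomycin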
[11] = cytotoxicity in HEK-293T NF-kB-Luc cells, dose response, cytotoxicity control for B/T-cell NF-kB inhibitor project, cell-based, uHTS hits (AID 489019); format: functional;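 note: IC50 reflects cytotoxicity as loss of cell viability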
[12] = target: Dual specificity protein phosphatase 3 (Homo sapiens, UniProt P51452); experiment: SAR VHR1 Fluorescent Assay for In Vitro dose response studies Set 3. [Related pubchem assays (depositor defined):AID1654, AID1661, AID1878]; format: functional
Sequence of Dual specificity protein phosphatase 3 (P51452 whole entry): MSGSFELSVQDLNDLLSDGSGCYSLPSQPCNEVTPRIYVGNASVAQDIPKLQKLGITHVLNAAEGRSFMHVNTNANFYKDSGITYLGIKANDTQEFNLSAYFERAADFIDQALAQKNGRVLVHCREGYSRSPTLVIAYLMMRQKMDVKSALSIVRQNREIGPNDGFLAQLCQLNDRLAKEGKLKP

HEK293 [13] = experiment: cells; format: functional, cell-based; conditions: Homo sapiens
[14] = HepG2 cell cytotoxicity, dose response, cytotoxicity control for Shn3 inhibitor project, CellTiter-Glo, cherry-picked (AID 624134); format: functional, cell-based
[15] = cytotoxicity toward NIH3T3 fibroblasts, dose response, counter-screen, cell-based, ATP luminescence, mouse fibroblasts (AID 2010); format: functional;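 note: cells exposed to compound for about 90 hours before reading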
HEK293 [16] = experiment: cells; format: functional, cell-based; conditions: Homo sapiens; remark: listed apart in the source
[17] = insulin promoter down-regulators in MIN6 cells, imaging, high-content screening, mouse beta cells (AID 1628); format: functional
[18] = inhibitors of intracellular T. cruzi replication, confirmation, NIH3T3 host cells, beta-gal luminescence (AID 2044); format: functional, cell-based;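 note: intracellular parasites grown in NIH/3T3 mouse fibroblasts as host cells; luminescent beta-galactosidase reporter signal from transgenic T. cruzi replicating inside host cells; inhibitors lower the luminescence signal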
INS1 = experiment: beta cell apoptosis inhibitors, cytokine rescue, dose response, luminescence, retest (AID 449756); format: functional, cell-based; conditions: Rattus norvegicus;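 note: cell death triggered by IL-1 beta plus TNF-alpha plus IFN-gamma mixture; protective hits raise ATP signal compared with cytokine alone wells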
[19] = Shn3 3'UTR reporter inhibitors, dose response, cell-based, Clone20 osteoblasts, firefly luciferase, cherry-picked (AID 624132); format: functional;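 note: firefly luciferase luminescence from reporter carrying the Shn3 3'UTR in osteoblasts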
HEK293 [20] = experiment: NOD1 signaling inhibitors, primary screen, cell-based, luminescence, uHTS (AID 1578); format: functional; conditions: Homo sapiens
HEK293 [21] = experiment: NOD2 signaling inhibitors in MDP-stimulated cells, cell-based, uHTS, luminescence (AID 2001); format: functional; conditions: Homo sapiens
[22] = control 3'UTR Renilla luciferase suppression, dose response, counter-screen for Shn3 inhibitor project, cell-based, Clone20-Shn3RL, cherry-picked (AID 624133); format: functional
[23] = cytotoxicity in MIN6 insulinoma cells, dose response, cytotoxicity control, cell-based, mouse insulinoma (AID 2122); format: functional;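 note: confirmatory high-throughput counterscreen run to flag cytotoxic compounds; mouse MIN-6 beta cells carrying an insulin promoter eGFP reporter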
[24] = target: T2, Tyrosine-protein phosphatase non-receptor type 7 (Homo sapiens, UniProt P35236); experiment: redox-dependent HePTP inhibition, mechanism study, biochemical, fluorescence (AID 2068); format: functional
T2 sequence (P35236 whole entry): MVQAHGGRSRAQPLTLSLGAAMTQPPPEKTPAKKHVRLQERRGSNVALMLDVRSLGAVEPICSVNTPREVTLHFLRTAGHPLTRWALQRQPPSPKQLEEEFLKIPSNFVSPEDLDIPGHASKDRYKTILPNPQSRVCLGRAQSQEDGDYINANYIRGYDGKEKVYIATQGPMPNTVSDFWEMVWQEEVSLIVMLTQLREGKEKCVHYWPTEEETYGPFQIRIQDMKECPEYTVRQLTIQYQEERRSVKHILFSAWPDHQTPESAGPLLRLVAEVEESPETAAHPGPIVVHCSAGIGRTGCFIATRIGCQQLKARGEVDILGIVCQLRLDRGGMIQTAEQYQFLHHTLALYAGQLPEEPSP

[25] = target: Dual specificity protein phosphatase 6 (Rattus norvegicus, UniProt Q64346); format: functional;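 note: confirmatory in vitro dose-response testing of MKP-3 inhibition; recombinant His-tagged MKP-3 made in E. coli BL21 with OMFP substrate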
Sequence of Dual specificity protein phosphatase 6 (Q64346 whole entry): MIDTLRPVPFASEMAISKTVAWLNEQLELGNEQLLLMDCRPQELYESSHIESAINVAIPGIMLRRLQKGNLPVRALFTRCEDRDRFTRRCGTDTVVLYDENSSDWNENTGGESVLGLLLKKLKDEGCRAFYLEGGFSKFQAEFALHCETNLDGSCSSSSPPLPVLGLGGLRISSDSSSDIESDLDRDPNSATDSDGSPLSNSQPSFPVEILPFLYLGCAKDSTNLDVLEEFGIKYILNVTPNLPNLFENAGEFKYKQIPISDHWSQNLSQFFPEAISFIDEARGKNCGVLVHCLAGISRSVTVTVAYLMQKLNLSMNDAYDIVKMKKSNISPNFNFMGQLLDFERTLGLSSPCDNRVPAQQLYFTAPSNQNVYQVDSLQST

[26] = target: T3, Corticotropin-releasing factor receptor 2/Corticotropin-releasing factor-binding protein (Homo sapiens, UniProt P24387+Q13324); experiment: activators of CRF receptor 2 with binding protein – uHTS hits, confirmation (AID 602473); format: functional; conditions: read-out: EC50_Mean
T3 sequence (Q13324 whole entry): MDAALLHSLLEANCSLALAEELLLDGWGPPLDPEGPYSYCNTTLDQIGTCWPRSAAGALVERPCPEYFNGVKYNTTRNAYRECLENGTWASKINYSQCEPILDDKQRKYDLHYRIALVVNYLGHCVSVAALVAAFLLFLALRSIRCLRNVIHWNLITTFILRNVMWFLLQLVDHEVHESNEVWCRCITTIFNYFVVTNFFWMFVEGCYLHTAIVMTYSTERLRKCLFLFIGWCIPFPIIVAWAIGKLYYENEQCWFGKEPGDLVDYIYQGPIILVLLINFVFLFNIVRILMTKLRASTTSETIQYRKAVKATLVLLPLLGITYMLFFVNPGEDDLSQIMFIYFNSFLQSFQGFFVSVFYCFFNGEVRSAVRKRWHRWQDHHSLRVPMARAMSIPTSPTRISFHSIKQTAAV
T3 sequence (P24387 whole entry): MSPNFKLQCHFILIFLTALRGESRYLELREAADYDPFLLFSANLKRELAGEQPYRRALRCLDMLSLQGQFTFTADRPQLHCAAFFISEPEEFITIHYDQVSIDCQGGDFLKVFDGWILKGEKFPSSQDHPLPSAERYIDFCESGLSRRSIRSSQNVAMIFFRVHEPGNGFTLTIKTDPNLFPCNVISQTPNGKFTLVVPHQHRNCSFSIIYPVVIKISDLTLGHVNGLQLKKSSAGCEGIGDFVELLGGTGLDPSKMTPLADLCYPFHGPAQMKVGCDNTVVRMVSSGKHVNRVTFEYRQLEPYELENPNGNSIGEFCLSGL

[27] = target: T3, Corticotropin-releasing factor receptor 2/Corticotropin-releasing factor-binding protein; experiment: Dose Response confirmation of uHTS hits for small molecule antagonists of the CRF-binding protein and CRF-R2 receptor complex.; format: functional; conditions: read-out: IC50_Mean
Phospholipase A2 = Phospholipase A2 (Homo sapiens, UniProt P04054); experiment: PLA2 enzyme inhibitors, dose response, counter-screen for ATG4B inhibitor project, biochemical, set 2 (AID 588586); format: functional
Cytochrome P450 2D6 = Cytochrome P450 2D6 (Homo sapiens, UniProt P10635);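 note: CYP2D6 member of a cytochrome P450 panel assay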
Cysteine protease ATG4B = target: T4, Cysteine protease ATG4B (Homo sapiens, UniProt Q9Y4P1); experiment: ATG4B protease inhibitors, dose response, biochemical, fluorescence, set 2 (AID 588584); format: functional
T4 sequence (Q9Y4P1 whole entry): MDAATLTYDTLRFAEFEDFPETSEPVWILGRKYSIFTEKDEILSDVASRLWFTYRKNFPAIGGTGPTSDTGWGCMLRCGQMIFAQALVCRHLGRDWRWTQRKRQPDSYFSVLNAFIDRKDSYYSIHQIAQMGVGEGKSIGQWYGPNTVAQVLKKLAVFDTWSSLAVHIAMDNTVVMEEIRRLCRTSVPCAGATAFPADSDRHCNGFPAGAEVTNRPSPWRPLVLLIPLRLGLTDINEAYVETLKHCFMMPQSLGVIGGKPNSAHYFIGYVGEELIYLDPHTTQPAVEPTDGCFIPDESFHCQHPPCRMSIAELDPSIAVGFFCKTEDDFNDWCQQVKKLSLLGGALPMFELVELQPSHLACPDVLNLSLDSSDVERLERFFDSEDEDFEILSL

Cytochrome P450 3A4 = Cytochrome P450 3A4 (Homo sapiens, UniProt P08684);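 note: CYP3A4 tested as one member of a cytochrome P450 panel screen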
Sequence of Cytochrome P450 3A4 (P08684 whole entry): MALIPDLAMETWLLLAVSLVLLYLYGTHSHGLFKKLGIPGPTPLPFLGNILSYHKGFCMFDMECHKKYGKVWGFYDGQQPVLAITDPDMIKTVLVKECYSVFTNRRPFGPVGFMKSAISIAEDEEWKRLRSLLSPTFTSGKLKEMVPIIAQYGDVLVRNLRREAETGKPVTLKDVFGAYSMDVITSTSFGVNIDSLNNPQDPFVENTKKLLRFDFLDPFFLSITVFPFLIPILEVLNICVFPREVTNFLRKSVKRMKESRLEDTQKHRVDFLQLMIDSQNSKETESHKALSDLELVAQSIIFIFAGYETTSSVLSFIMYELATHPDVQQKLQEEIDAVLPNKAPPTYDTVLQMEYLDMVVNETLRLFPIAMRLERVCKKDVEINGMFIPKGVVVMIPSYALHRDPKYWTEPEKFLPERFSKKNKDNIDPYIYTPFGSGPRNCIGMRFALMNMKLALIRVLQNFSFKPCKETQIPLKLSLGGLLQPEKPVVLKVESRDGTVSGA

CN(C)CCNc1ccc2ncn3c4ccc(O)cc4c(=O)c1c23
EC50 [1]: > 91.1 µM (inactive) | AC50 (HeLa): 11.5 µM (active) | IC50 [2]: 46.8 µM (active) | AC50 (ORF 73): 6.38 µM (active) | EC50 [3]: 11.5 µM (inactive) | EC50 (HEK293 [4]): > 59.6 µM (inactive) | AC50 (Keap1/Nrf2): 3.79 µM (active) | AC50 [5]: 89 µM (active) | EC50 (HEK293 [6]): > 6.62 µM (active) | CC50 [7]: 49.2 µM (active)

COc1ccccc1/C=C/C(=O)OCCCN(C)C
EC50 [8]: > 195 µM (not active) | EC50 [9]: 2.52 µM (active) | EC50 [10]: 2.52 µM (active)

CCCCCNC(=O)c1ccc2c(=O)n(CC3CCCO3)c(=O)[nH]c2c1 (stereo unspecified)
IC50 (Jurkat): > 80 µM (inactive) | IC50 [11]: > 80 µM (inactive)

COc1cccc2sc(NC(=O)c3ccc(C(=O)c4ccccc4)cc3)nc12
IC50 [12]: > 66 µM (inactive)

COc1ccc(CC2(CO)CCN(CC3=Cc4cc(Cl)ccc4OC3)CC2)cc1
IC50 (HEK293 [13]): 8.64 µM (active) | AC50 [14]: 7.73 µM (active) | EC50 [15]: > 60 µM (inconclusive) | IC50 (HEK293 [16]): 3.77 µM (active) | IC50 [17]: 1.79 µM (active) | EC50 [18]: 1.68 µM (active) | AC50 (INS1): 3.28 µM (active) | AC50 [19]: 1.33 µM (active) | EC50 (HEK293 [20]): 5.44 µM (active) | IC50 (HEK293 [21]): 4.31 µM (active) | AC50 [22]: 7.74 µM (active) | IC50 [23]: 1.28 µM (active)

CCN(CC)C(=O)c1cn(CCOc2ccccc2)c2ccccc12
IC50 [24]: 1.38 µM (active) | IC50 [25]: > 100 µM (inactive)

CCOc1ccc(C(=O)Nc2cnn(Cc3ccc(Cl)c(Cl)c3)c2)cc1
EC50 [26]: > 53 µM (inactive) | IC50 [27]: > 47.1 µM (inactive) | IC50 (Phospholipase A2): 79.1 µM (inactive) | AC50 (Cytochrome P450 2D6): 15.8 µM (inconclusive) | IC50 (Cysteine protease ATG4B): 68.1 µM (inactive) | AC50 (Cytochrome P450 3A4): 22.4 µM (inconclusive)
